Assay results published in the supplement of paper PMC4862054.
Values joined by “and” are separate entries in the source; they are usually repeats but may differ in a detail not shown here. Equal entries are not always repeated.

Assays:
Settings in all cases: incubation time: 72 h
CAL-148 [1] = assay: normalised viability (% of control), CellTiter-Blue; higher = more viable cells (about 100 = DMSO control)
Description: (§1)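 DSRT, CellTiter-Blue viability, 72 h incubation. Signal is normalised to DMSO and benzethonium chloride controls. Value is the normalised response at dose 7.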

DU-4475 = assay: as above
Description: as §1

CAL-85-1 [2] = assay: as above
Description: as §1

HDQ-P1 [3] = assay: as above
Description: as §1

CAL-51 [4] = assay: as above
Description: as §1

MDA-MB-453 [5] = assay: as above
Description: as §1

CAL-148 [6] = assay: normalised response (% of control), CellTiter-Glo; higher = more viable cells (100 = DMSO, 0 = benzethonium chloride kill control)
Summary of the method: (§2)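 Plates were normalised with 0.1 % DMSO as 100 and a positive kill control as 0. Breast cancer cell lines in 20 µl suspension had been seeded into 384-well plates with compound at 5 concentrations in 10-fold steps over a compound-specific 10,000-fold range, incubated 72 h, and read for CellTox Green fluorescence (485/520 nm) followed by CellTiter-Glo luminescence. Each value is the normalised signal at a single concentration.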

HCC1143 = assay: as above
Summary of the method: as §2

MDA-MB-468 = assay: as above
Summary of the method: as §2

Hs578T = assay: as above
Summary of the method: as §2

CAL-120 = assay: as above
Summary of the method: as §2

MFM-223 = assay: as above
Summary of the method: as §2

CAL-85-1 [7] = assay: as above
Summary of the method: as §2

HCC1599 = assay: as above
Summary of the method: as §2

HDQ-P1 [8] = assay: as above
Summary of the method: as §2

CAL-51 [9] = assay: as above
Summary of the method: as §2

MDA-MB-231 = assay: as above
Summary of the method: as §2

MCF-10A = assay: as above
Summary of the method: as §2

MDA-MB-453 [10] = assay: as above
Summary of the method: as §2

MDA-MB-436 = assay: as above
Summary of the method: as §2

N#Cc1ccc(COC[C@H]2O[C@@H](n3c(NCc4ccc(Cl)c(Cl)c4)nc4c(N)ncnc43)[C@H](O)[C@@H]2O)cc1 (1000 nM)
normalised viability (CAL-148 [1]): 101% | normalised viability (DU-4475): 99.8% | normalised viability (CAL-85-1 [2]): 88.9% | normalised viability (HDQ-P1 [3]): 81.2% | normalised viability (CAL-51 [4]): 105% | normalised viability (MDA-MB-453 [5]): 93.2% | normalised response (CAL-148 [6]): 98.5% | normalised response (HCC1143): 97.2% | normalised response (MDA-MB-468): 93.7% | normalised response (Hs578T): 86.9% | normalised response (CAL-120): 101% | normalised response (MFM-223): 98.9% | normalised response (CAL-85-1 [7]): 107% | normalised response (HCC1599): 116% | normalised response (HDQ-P1 [8]): 98.7% | normalised response (CAL-51 [9]): 110% | normalised response (MDA-MB-231): 89.8% | normalised response (MCF-10A): 96.6% | normalised response (MDA-MB-453 [10]): 98.4% | normalised response (MDA-MB-436): 109%

COc1cc(OC2CCN(C)CC2)ccc1Nc1ncc2c(n1)n(C1CCCC1)c(=O)n2C [AZ 3146] (1000 nM)
normalised viability (CAL-148 [1]): 108% | normalised viability (DU-4475): 99% | normalised viability (CAL-85-1 [2]): 108% | normalised viability (HDQ-P1 [3]): 89.4% | normalised viability (CAL-51 [4]): 75.2% | normalised viability (MDA-MB-453 [5]): 90.6% | normalised response (CAL-148 [6]): 94.5% | normalised response (HCC1143): 99.2% | normalised response (MDA-MB-468): 104% | normalised response (Hs578T): 100% | normalised response (CAL-120): 98% | normalised response (MFM-223): 98.2% | normalised response (CAL-85-1 [7]): 98.2% | normalised response (HCC1599): 112% | normalised response (HDQ-P1 [8]): 98.4% | normalised response (CAL-51 [9]): 74.5% | normalised response (MDA-MB-231): 96.7% | normalised response (MCF-10A): 92.5% | normalised response (MDA-MB-453 [10]): 117% | normalised response (MDA-MB-436): 110%

CN(C)c1nc(N(C)C)nc(N(C)C)n1 [Altretamine] (1000 nM)
normalised viability (CAL-148 [1]): 105% | normalised viability (DU-4475): 113% | normalised viability (CAL-85-1 [2]): 96.9% | normalised viability (HDQ-P1 [3]): 101% | normalised viability (CAL-51 [4]): 103% | normalised viability (MDA-MB-453 [5]): 91.6% | normalised response (CAL-148 [6]): 95.2% | normalised response (HCC1143): 103% | normalised response (MDA-MB-468): 107% | normalised response (Hs578T): 110% | normalised response (CAL-120): 99.5% | normalised response (MFM-223): 103% | normalised response (CAL-85-1 [7]): 102% | normalised response (HCC1599): 118% | normalised response (HDQ-P1 [8]): 105% | normalised response (CAL-51 [9]): 108% | normalised response (MDA-MB-231): 100% | normalised response (MCF-10A): 103% | normalised response (MDA-MB-453 [10]): 115% | normalised response (MDA-MB-436): 99.3%

O=C(/C=C/c1cccc(S(=O)(=O)Nc2ccccc2)c1)NO [Belinostat] (1000 nM)
normalised viability (CAL-148 [1]): 24.3% | normalised viability (DU-4475): 33.3% | normalised viability (CAL-85-1 [2]): 42.8% | normalised viability (HDQ-P1 [3]): 49.5% | normalised viability (CAL-51 [4]): 59.9% | normalised viability (MDA-MB-453 [5]): 4.06% | normalised response (CAL-148 [6]): 28.5% | normalised response (HCC1143): 47.3% | normalised response (MDA-MB-468): 31.8% | normalised response (Hs578T): 50.6% | normalised response (CAL-120): 39.8% | normalised response (MFM-223): 34.2% | normalised response (CAL-85-1 [7]): 44.5% | normalised response (HCC1599): 44.5% | normalised response (HDQ-P1 [8]): 68.8% | normalised response (CAL-51 [9]): 31.7% | normalised response (MDA-MB-231): 36% | normalised response (MCF-10A): 55.6% | normalised response (MDA-MB-453 [10]): 14.4% | normalised response (MDA-MB-436): 51.9%

O=P1(N(CCCl)CCCl)NCCCO1 (stereo not given) [Cyclophosphamide] (4000 nM)
normalised viability (CAL-148 [1]): 121% | normalised viability (DU-4475): 97% | normalised viability (CAL-85-1 [2]): 101% | normalised viability (HDQ-P1 [3]): 99.2% | normalised viability (CAL-51 [4]): 99% | normalised viability (MDA-MB-453 [5]): 105% | normalised response (CAL-148 [6]): 100% | normalised response (HCC1143): 104% | normalised response (MDA-MB-468): 92.9% | normalised response (Hs578T): 111% | normalised response (CAL-120): 94.4% | normalised response (MFM-223): 106% | normalised response (CAL-85-1 [7]): 92.1% | normalised response (HCC1599): 109% | normalised response (HDQ-P1 [8]): 98% | normalised response (CAL-51 [9]): 99.4% | normalised response (MDA-MB-231): 99.5% | normalised response (MCF-10A): 103% | normalised response (MDA-MB-453 [10]): 111% | normalised response (MDA-MB-436): 97.8%

C=C1C[C@@H]2[C@H](CC[C@]3(C)C(=O)CC[C@@H]23)[C@@]2(C)C=CC(=O)C=C12 [Exemestane] (1000 nM)
normalised viability (CAL-148 [1]): 120% | normalised viability (DU-4475): 85.8% | normalised viability (CAL-85-1 [2]): 91.7% | normalised viability (HDQ-P1 [3]): 102% | normalised viability (CAL-51 [4]): 96.5% | normalised viability (MDA-MB-453 [5]): 90.2% | normalised response (CAL-148 [6]): 97.7% | normalised response (HCC1143): 107% | normalised response (MDA-MB-468): 101% | normalised response (Hs578T): 100% | normalised response (CAL-120): 102% | normalised response (MFM-223): 110% | normalised response (CAL-85-1 [7]): 98.3% | normalised response (HCC1599): 115% | normalised response (HDQ-P1 [8]): 99.3% | normalised response (CAL-51 [9]): 80.5% | normalised response (MDA-MB-231): 106% | normalised response (MCF-10A): 112% | normalised response (MDA-MB-453 [10]): 105% | normalised response (MDA-MB-436): 102%

COc1cc2ncnc(Nc3ccc(F)c(Cl)c3)c2cc1OCCCN1CCOCC1 [Gefitinib] (1000 nM)
normalised viability (CAL-148 [1]): 79.6% and 83.3% | normalised viability (DU-4475): 101% and 86.2% | normalised viability (CAL-85-1 [2]): 54.4% and 47.4% | normalised viability (HDQ-P1 [3]): 76.2% and 90.4% | normalised viability (CAL-51 [4]): 107% and 98.3% | normalised viability (MDA-MB-453 [5]): 82.9% and 76.9% | normalised response (CAL-148 [6]): 80% | normalised response (HCC1143): 96.2% | normalised response (MDA-MB-468): 75.3% | normalised response (Hs578T): 106% | normalised response (CAL-120): 103% | normalised response (MFM-223): 100% | normalised response (CAL-85-1 [7]): 58.4% | normalised response (HCC1599): 104% | normalised response (HDQ-P1 [8]): 69% | normalised response (CAL-51 [9]): 103% | normalised response (MDA-MB-231): 101% | normalised response (MCF-10A): 34.2% | normalised response (MDA-MB-453 [10]): 95.2% | normalised response (MDA-MB-436): 103%

O=C(Nc1ccncc1)C(=O)c1cn(Cc2ccc(Cl)cc2)c2ccccc12 [Indibulin] (1000 nM)
normalised viability (CAL-148 [1]): 118% | normalised viability (DU-4475): 81.8% | normalised viability (CAL-85-1 [2]): 53.8% | normalised viability (HDQ-P1 [3]): 61.3% | normalised viability (CAL-51 [4]): 54.2% | normalised viability (MDA-MB-453 [5]): 38.5% | normalised response (CAL-148 [6]): 93.2% | normalised response (HCC1143): 67.2% | normalised response (MDA-MB-468): 37.7% | normalised response (Hs578T): 57.8% | normalised response (CAL-120): 66.9% | normalised response (MFM-223): 60% | normalised response (CAL-85-1 [7]): 38.3% | normalised response (HCC1599): 63.1% | normalised response (HDQ-P1 [8]): 80.1% | normalised response (CAL-51 [9]): 25.5% | normalised response (MDA-MB-231): 78% | normalised response (MCF-10A): 89.8% | normalised response (MDA-MB-453 [10]): 67.8% | normalised response (MDA-MB-436): 42.2%

NC(=O)c1ccc(I)c([N+](=O)[O-])c1 [Iniparib] (1000 nM)
normalised viability (CAL-148 [1]): 87.9% | normalised viability (DU-4475): 108% | normalised viability (CAL-85-1 [2]): 83.3% | normalised viability (HDQ-P1 [3]): 99.6% | normalised viability (CAL-51 [4]): 95.3% | normalised viability (MDA-MB-453 [5]): 89.2% | normalised response (CAL-148 [6]): 83.3% | normalised response (HCC1143): 87.7% | normalised response (MDA-MB-468): 83.8% | normalised response (Hs578T): 94.6% | normalised response (CAL-120): 93.2% | normalised response (MFM-223): 81.3% | normalised response (CAL-85-1 [7]): 94.5% | normalised response (HCC1599): 105% | normalised response (HDQ-P1 [8]): 97% | normalised response (CAL-51 [9]): 126% | normalised response (MDA-MB-231): 90% | normalised response (MCF-10A): 82% | normalised response (MDA-MB-453 [10]): 89.2% | normalised response (MDA-MB-436): 88.2%
